Laboratory results published in patent US12012412B2, “Solid forms of pyrazolo[3,4-d]pyrimidine compounds” (Pfizer Inc., priority 2021, dated 2024).
≈ marks a conversion by molar mass, not a printed value. Where two headings read alike, the source gives them in different places.

Assays:
Type in all cases: physicochemical
[1] = VT-XRPD analysis of Solid Form B
Protocol: VT-XRPD analysis was carried out on a Philips X'Pert Pro Multipurpose diffractometer equipped with a temperature chamber. The samples were scanned between 4 and 35.99°2θ using Cu K radiation (α1λ=1.54060 Å; α2=1.54443 Å; β=1.39225 Å; α1:α2 ratio=0.5) running in Bragg-Brentano geometry (step size 0.008°2θ) using 40 kV/40 mA generator settings. Solid Form B was analyzed by VT-XRPD to assess changes in form upon heating. The sample was heated at 10° C./min and diffraction pattern collected at various temperatures (based on TG/DSC data).

[2] = VH-XRPD analysis of Solid Form B
Protocol: VH-XRPD analysis was carried out on a Philips X'Pert Pro Multipurpose diffractometer equipped with a humidity chamber. The samples were scanned between 4 and 35.99°2θ using Cu K radiation (α1λ=1.54060 Å; α2=1.54443 Å; β=1.39225 Å; α1:α2 ratio=0.5) running in Bragg-Brentano geometry (step size 0.008°2θ) using 40 kV/40 mA generator settings. Variable humidity XRPD was carried out using the following method: A diffractogram was collected once each targeted % RH was reached and after the reported time had elapsed (Table 14 below). After 20 hours at 2% RH, some P2O5 was introduced within the stage chamber with the aim of further dry the environment. The sample was kept at these conditions for further 16 hours, during which a diffractogram was collected ever hour.

[3] = Thermodynamic solubility assessment of Solid Form B; settings: for solubility thermodynamic at 24 h: thermodynamic from solid; for solubility thermodynamic at 24 h / XRPD Pattern of residual solid: 24 hours
[4] = 7-day stability assessment of Solid Form B; settings: 7 days; for HPLC purity (% rel. Area): input purity 100%
Protocol: 15 mg of Solid Form B was weighed into 3×1.5 mL vials. • One vial was left uncapped, placed inside a scintillation vial and stored at ambient conditions (ca. 20° C.). • One vial was left uncapped and placed inside a scintillation vial. This was placed in a stability oven at 40° C./75% RH. • One vial was capped and placed inside a scintillation vial. This was placed inside an oven at 80° C. After 7 days the samples were removed from their respective conditions, analyzed by XRPD and submitted for HPLC analysis.

[5] = Dynamic vapour sorption (DVS) assessment of Solid Form B

With `C[C@@H]1CN(Cc2ncccn2)C[C@H]1c1nc2c(cnn2C2CCOCC2)c(=O)[nH]1` [Solid Form B, 6-((3S,4S)-4-methyl-1-(pyrimidin-2-ylmethyl)pyrrolidin-3-yl)-1-(tetrahydro-2H-pyran-4-yl)-1,5-dihydro-4H-pyrazolo[3,4-d]pyrimidin-4-one] the “XRPD (form observed on heating)” value ([1]; 30 °C, hold 0 mins (last step, after 135 °C)) was “Solid Form A”, the “XRPD (form observed on heating)” value ([1]; 30 °C, hold 0 mins (start), heated at 10 °C/min) was “Solid Form B” and the “XRPD (form observed on heating)” value ([1]; 85 °C, hold 0 mins) was “Solid Form C”. For the same compound, the “XRPD (form observed on heating)” value ([1]; 85 °C, hold 5 mins) was “Solid Form C”, the “Solid form observed upon heating (VT-XRPD)” value ([1]; 130° C.) was “mixture of Solid Form A and C” and the “XRPD (form observed on heating)” value ([1]; 130 °C, hold 0 mins) was “Solid Form A/C”. The “Solid form observed upon heating (VT-XRPD)” value ([1]; 135° C.) was “consistent with Solid Form A”, the “XRPD (form observed on heating)” value ([1]; 135 °C, hold 0 mins) was “Solid Form A” and the “XRPD (form observed on heating)” value ([1]; 135 °C, hold 10 mins) was “Solid Form A”. For the same compound, the “Solid form observed upon heating (VT-XRPD)” value ([1]; heated to 85° C., 10° C./min) was “Solid Form C”, the “XRPD (form at variable humidity)” value ([2]; 2% RH, 0.5 hours) was “Solid Form B” and the “XRPD (form at variable humidity)” value ([2]; 2% RH, 20 hours) was “Solid Form B”. The “XRPD (form at variable humidity)” value ([2]; 10% RH, 1 hour) was “Solid Form B”, the “XRPD (form at variable humidity)” value ([2]; 40% RH, 0 hours (start)) was “Solid Form B” and the “XRPD (form at variable humidity)” value ([2]; 40% RH, 0.5 hours) was “Solid Form B”. The “XRPD (form at variable humidity)” value ([2]; 90% RH, 0.5 hours) was “Solid Form B”, the “Change in form under variable humidity (VH-XRPD)” value ([2]; variable % RH, down to 2% RH and with P2O5) was “no change in form” and the “Solid form after solubility test (XRPD)” value ([3]; across the pH range, 25° C.) was “retained”. It also gave a solubility thermodynamic at 24 h ([3]; aqueous buffer, pH 4.5 buffer, 25° C., read-out: HPLC conc. (mg/mL), thermodynamic solubility) of 162 mg/mL (≈ 411 mM), a solubility thermodynamic at 24 h ([3]; aqueous buffer, pH 6.8 buffer, 25° C., read-out: HPLC conc. (mg/mL), thermodynamic solubility) of 21.8 mg/mL (≈ 55.1 mM) and a solubility thermodynamic at 24 h ([3]; buffer, aqueous buffer, pH 4.5, 25° C., read-out: Thermodynamic solubility) greater than 150 mg/mL. For the same compound, the “XRPD Pattern of residual solid” value ([3]; pH 1.2 buffer, 25° C.) was “Solid Form B”, the “XRPD Pattern of residual solid” value ([3]; pH 4.5 buffer, 25° C.) was “Solid Form B” and the “XRPD Pattern of residual solid” value ([3]; pH 6.8 buffer, 25° C.) was “Solid Form B”. For the same compound, the solubility thermodynamic at 24 h ([3]; simulated gastric fluid, pH 1.2 buffer, 25° C., read-out: HPLC conc. (mg/mL), thermodynamic solubility) was 46.7 mg/mL (≈ 118 mM), the “Solid form after storage (XRPD)” value ([4]; 40° C./75% RH) was “retained” and the “XRPD (form after storage)” value ([4]; 40° C./75% RH) was “Solid Form B”. The “HPLC purity (% rel. Area)” value ([4]; 40° C./75% RH) was 100 % rel. Area, the “Solid form after storage (XRPD)” value ([4]; 80° C.) was “converted to a mixture of Solid Form A and Solid Form C” and the “HPLC purity (% rel. Area)” value ([4]; 80° C.) was 100 % rel. Area. The “XRPD (form after storage)” value ([4]; Ambient Light) was “Solid Form B”, the “HPLC purity (% rel. Area)” value ([4]; Ambient Light) was 100 % rel. Area and the “Solid form after storage (XRPD)” value ([4]; ambient temperature (ca. 20° C.)) was “retained”. For the same compound, the “Purity change (HPLC)” value ([4]; ambient, 40° C./75% RH and 80° C.) was “no drop in purity”, the “Uptake (DVS)” value ([5]; at 80% RH) was 4.3 wt. % and the “Mass loss on de-sorption/uptake on sorption (DVS)” value ([5]; between 0 and 10% RH) was “ca. 2.6 wt. %”. The “Mass loss on de-sorption/uptake on sorption (DVS), water equivalents” value ([5]; between 0 and 10% RH) was 0.6 eq. water, the “Uptake (DVS)” value ([5]; between 40 and 80% RH, first sorption cycle) was 0.2 wt. % and the “XRPD form after DVS analysis” value ([5]; post DVS) was “consistent with Solid Form B with traces of Solid Form C”.
